Source: patent publication US20120010148A1, “COMBINATION THERAPIES USING NAP” (ALLON THERAPEUTICS INC., priority 2008, published 2012)
“Also recorded” adds a separate entry of the source.

How the values were obtained:
schizophrenia patients = details: human clinical trial; cited from earlier work
ischemic injury = details: after ischemic injury; cited from earlier work
[1] = system: Human SH-SY5Y neuroblastoma; experiment: Clozapine-induced cell death in SH-SY5Y cells, MTS assay; type: cell-based; details: 24 hours
Source text: Clozapine, a widely used anti psychotic drug may be associated with increased cell mortality. It was not known, however, whether NAP ([…], SEQ ID NO:2) treatment would inhibit clozapine associated neuronal death. To address this question and validate the efficiency of using a NAP-clozapine combination drug candidate, an experimental test system in cell culture was established (Heiser et al., Journal of Psychopharmacology 21(8):851-856 (2007)). Human SH-SY5Y neuroblastoma supplemented with 15% fetal calf serum (FCS) (Beit-Haemek, Israel), 1% penicillin-streptomycin, and 1% glutamine were incubated in a 5% CO2 atmosphere. Thirty-six thousand cells/well (in a 96 well plates) were plated 24 hours prior to the clozapine or NAP treatment. Clozapine (CLZ) was obtained from Sigma Chemicals (Sigma, Israel). Thirty-six thousand cells per well (in at least 6 replicate wells) were exposed to clozapine (CLZ, 20 μg/ml) or clozapine (CLZ, 20 μg/ml)+NAP or NAP alone (10^−15M-10^−10 M) for 24 hours at 37° C. Drug and control solutions were dissolved in ethanol. Measurement of metabolic activity and survival was determined by non-radioactive cell proliferation assay (MTS) (Promega, USA) and evaluated by an ELISA-reader at 490 nm wavelength.

[2] = system: animal models simulating parts of the Alzheimer's disease pathology; details: in vivo; cited from earlier work
STOP+/− mice [3] = experiment: Social recognition test; type: in vivo; details: 8-month-old STOP+/− mice; NAP 0.5 microgram/mouse/day, clozapine 3 mg/kg/day, FIG. 16
Description: In the social recognition test, 8-month-old mice (STOP+/−) were habituated for 20 minutes in a cage and then exposed to a new juvenile mouse (1.5-month old) for one minute—followed by a 30-minute interval and another 1 minute exposure four times (familiarizing the test subject with the juvenile mouse). The fifth exposure session included a novel juvenile mouse. Time spent interacting with the juvenile mouse was recorded.

[4] = system: ADNP-deficient mice, triple transgenic mouse model of AD, model of frontotemporal dementia; details: in vivo; cited from earlier work
[5] = system: model of fetal alcohol syndrome; details: in vivo, ip; cited from earlier work
STOP+/− mice [6] = experiment: Open field locomotor activity; type: in vivo, mouse
Description: The NAP vehicle solution (termed DD), included the following ingredients (per milliliter): 7.5 mg of NaCl, 1.7 mg of citric acid monohydrate, 3 mg of disodium phosphate dihydrate, and 0.2 mg of benzalkonium chloride solution (50%) (Alcalay R N et al., Neurosci Lett, 361(1-3): 128-131 (2004)). NAP or vehicle solution (DD) was administered to mice hand-held in a semisupine position with nostrils facing the investigator. A pipette tip was used to administer 2.5 μl/nostril. The mouse was hand-held until the solution was totally absorbed (10 s). […] STOP+/− male mice (5 months old, n=4) received daily doses of 10 mg/kg intraperitoneal injection (IP) of clozapine (5 days a week), for the duration of the experiment (7 weeks). A control STOP+/− male mice group (5 month old, n=3) were injected daily with saline. NAP treatment included daily (5 days a week) intranasal administrations (0.5 μg/5 μl/mouse/day) for 7-10 weeks. For intranasal administration, the peptide was dissolved in the vehicle solution (termed DD) described above. Each experimental group included 10-12 mice, 4-12 month-old; mean age 6 months). […]
Locomotor activity was measured in 5 consecutive sessions, 3 minutes each and the mean path length in cm of each mouse in the 3 minute sessions per the entire 15 minute period of observation in open field (80 cm diameter) was determined. […]

cell cultures = details: cited from earlier work
[7] = system: TNF-α, interleukin-16 (IL-16), and IL-12 in macrophages; details: cited from earlier work
[8] = system: Rat pheochromocytoma cells (PC12); experiment: Serum-deprivation survival of PC12 cells, MTS viability assay; type: cell-based
Description: The survival-promoting effects of galantamine (an acetylcholine-esterase inhibitor, or AcEI), NAP, and their combinatorial treatment were assessed in cell cultures. Cell culture method was adapted from Calderon et al., J Neurosci Res 56, 620-631 (1999).
Rat pheochromocytoma cells (PC12) were grown in Dulbecco's modified Eagle's medium (DMEM) supplemented with 8% fetal calf serum, 8% horse donor serum, 2 mm L-glutamine, and 1% penicillin-streptomycin solution.
For the experiments, cells were harvested, re-suspended, and seeded in 96-well plates at a concentration of 1.5×10^4 cells/well. Cells were pretreated with NAP and Galantamine [Galantamine (0.1, 0.5, 1, 10 μM); NAP (10^−8M, 10^−1° M, 10^−12M, 10^−15M)] 3 hours prior to serum deprivation and during serum deprivation. The assay for cell viability was performed 48 hours after serum deprivation. Calibration method is described below.
Culture medium was replaced by fresh medium without serum, containing NAP and Galantamine. Cells were incubated for 48 hours and then subject to MTS viability assay.
PC12 cells were seeded and treated as mentioned above without any drugs for 24 hours, 48 hours, and 72 hours. MTS results are represented by the percentage of viable cells from the serum deprived treatment vs. control treatment.

For CC[C@H](C)[C@H](NC(=O)[C@H](CO)NC(=O)[C@@H](NC(=O)[C@@H]1CCCN1C(=O)[C@H](C)NC(=O)[C@@H](N)CC(N)=O)C(C)C)C(=O)N1CCC[C@H]1C(=O)N[C@@H](CCC(N)=O)C(=O)O [NAP], the “activity in schizophrenia patients” value (schizophrenia patients) is given as “shown activity”, the “infarct volume and motor function deficits” value (ischemic injury) is given as “reduced infarct volume and motor function deficits” and the “effect on clozapine induced cell death” value ([1]; NAP 10^−15M with clozapine 20 μg/ml, FIG. 1) is given as “reversed”. The “cell mortality with NAP alone” value ([1]; NAP alone 10^−15M-10^−10 M, FIG. 2) was “does not affect cell mortality; also recorded: did not affect cell mortality”, the “protection in Alzheimer's disease pathology models” value [2] was “protective” and the social recognition behavior (STOP+/− mice [3]) was “partially ameliorated”. The “tau hyperphosphorylation and cognitive functions” value [4] was “reduces tau hyperphosphorylation and enhances cognitive functions”, the “fetal death after intraperitoneal injection of alcohol” value [5] was “inhibited” and the “hyper-locomotion (path length) in open field” value (STOP+/− mice [6]; Example 3, STOP+/− male mice, NAP intranasal 0.5 μg/mouse/day or clozapine 10 mg/kg IP, FIG. 8) was “significantly decreased the hyper-locomotion; also recorded: significantly reduced the path length”. The open field activity (STOP+/− mice [6]; Example 4, STOP+/− mice, NAP intranasal 0.5 microgram/mouse/day, clozapine injection 3 mg/kg/day, FIG. 11) was “also reduced the activity”, the “neuroprotective activity against a wide variety of toxins” value (cell cultures) was “neuroprotective activity at femtomolar concentrations” and the “key inflammatory cytokines TNF-α, IL-16 and IL-12” value [7] was “downregulates”. The “protection against extensive cell death” value ([8]; >40% cell death, compared against cultures supplemented with serum, FIG. 7) was “Neither NAP nor galantamine protected” and the “protection against serum deprivation” value ([8]; NAP alone, FIG. 5) was “provided protection”.
